Results published in ChEMBL document CHEMBL5108051, “Improving the Antimicrobial Performance of Amphiphilic Cationic Antimicrobial Peptides Using Glutamic Acid Full-Scan and Positive Charge Compensation Strategies” (J Med Chem, 2022).
Active and inactive are the calls of the source. The rule behind the calls is not given here. Bridge positions count the residues as written; N and C are the ends. Square brackets hold non-standard residues; d marks the D form. Peptide text beside a SMILES is read from it. * marks the point of attachment. X1 = CC[C@H](C)CCCCC(=O)*; Dab = NCC[C@H](N)C(=O)O

How the values were obtained:
Escherichia coli [1] = assay: Antibiofilm activity against Escherichia coli ATCC 25922 assessed as inhibition of biofilm formation at 4 times MIC measured after 24 hrs by crystal violet staining based assay; assay type: functional, organism-based
Escherichia coli [2] = assay: Bactericidal activity against Escherichia coli ATCC 25922 at 1 times MIC measured after 6 hrs by time-killing kinetics assay; assay type: functional
Staphylococcus aureus [3] = assay: Antimicrobial activity against Staphylococcus aureus ATCC 25923 assessed as increase fold in increase MIC in presence of FeCl3; assay type: functional
Staphylococcus aureus [4] = assay: Antimicrobial activity against Staphylococcus aureus ATCC 25923 assessed as fold increase in MIC in presence of KCl; assay type: functional
Escherichia coli [5] = assay: Bactericidal activity against Escherichia coli ATCC 25922 at 2 times MIC measured after 3 hrs by time-killing kinetics assay; assay type: functional
[6] = Acute toxicity in BALB/c mouse lung assessed as congestion at 20 to 80 mg/kg, ip administered as single dose measured for 7 days by H and E staining method; assay type: organism-based; conditions: in vivo, 168 h, dose 20-80 mg/kg, time 7 day
[7] = Acute toxicity in BALB/c mouse lung assessed as distortion of alveolar morphology at 20 to 80 mg/kg, ip administered as single dose measured for 7 days by H and E staining method; assay type: organism-based; conditions: in vivo, 168 h, dose 20-80 mg/kg, time 7 day
Staphylococcus aureus [8] = assay: In vivo antimicrobial activity against Staphylococcus aureus ATCC 25923 infected in BALB/C mouse pulmonary infection model administered ip; assay type: functional, organism-based; conditions: dose 5-10 mg/kg, DDE = dose-dependent effect
Staphylococcus aureus [9] = assay: Antimicrobial activity against Staphylococcus aureus ATCC 25923 in presence of KCl; assay type: functional, organism-based
Staphylococcus aureus [10] = assay: Antibacterial activity against Staphylococcus aureus ATCC 25923 infected in BALB/C mouse pulmonary infection model assessed as increase in bacterial killing in lung at 10 mg/kg, ip after 24 hrs by H and E staining method; assay type: functional, organism-based
Staphylococcus aureus [11] = assay: Antibacterial activity against Staphylococcus aureus ATCC 25923 assessed as inhibition of rifampin resistance development measured after 15 passages in presence of rifampin by resistance development assay; assay type: functional, organism-based
Escherichia coli [12] = assay: Bactericidal activity against Escherichia coli ATCC 25922 at 1 times MIC measured after 2 hrs by time-killing kinetics assay; assay type: functional
Staphylococcus aureus [13] = assay: Antimicrobial activity against Staphylococcus aureus ATCC 25923 in presence of MgCl2; assay type: functional, organism-based
Staphylococcus aureus [14] = assay: Antibacterial activity against Staphylococcus aureus ATCC 25923 assessed as inhibition of gentamicin resistance development measured after 15 passages in presence of gentamicin by resistance development assay; assay type: functional, organism-based
Escherichia coli [15] = assay: Antibacterial activity against Escherichia coli ATCC 25922 assessed as inhibition of rifampin resistance development measured after 15 passages in presence of rifampin by resistance development assay; assay type: functional, organism-based
Staphylococcus aureus [16] = assay: Antimicrobial activity against Staphylococcus aureus ATCC 25923 in presence of NaCl; assay type: functional, organism-based
Staphylococcus aureus [17] = assay: Antimicrobial activity against Staphylococcus aureus ATCC 25923 in presence of FeCl3; assay type: functional, organism-based
[18] = Acute toxicity in BALB/c mouse assessed as pathological changes in kidney at 20 to 80 mg/kg, ip administered as single dose measured for 7 days by H and E staining method; assay type: organism-based; conditions: in vivo, 168 h, dose 20-80 mg/kg, time 7 day
Escherichia coli [19] = assay: Disruption of membrane integrity in Escherichia coli ATCC 25922 assessed as increase in nucleic acid leakage by measuring PI-uptake level by microplate reader assay; assay type: functional, organism-based
Staphylococcus aureus [20] = assay: Disruption of membrane integrity in Staphylococcus aureus ATCC 25923 assessed as increase in nucleic acid leakage by measuring PI-uptake level by microplate reader assay; assay type: functional, organism-based
[21] = Acute toxicity in BALB/c mouse lung assessed as constricted pulmonary alveoli at 10 to 40 mg/kg, ip administered as single dose measured for 7 days by H and E staining method; assay type: organism-based; conditions: in vivo, 168 h, dose 10-40 mg/kg, time 7 day
[22] = Acute toxicity in BALB/c mouse spleen assessed as inflammatory cell infiltration at 10 to 40 mg/kg, ip administered as single dose measured for 7 days by H and E staining method; assay type: organism-based; conditions: in vivo, 168 h, dose 10-40 mg/kg, time 7 day
[23] = Acute toxicity in BALB/c mouse assessed as hyper-mobility at 10 to 20 mg/kg, ip administered as single dose measured for 7 days; assay type: organism-based; conditions: in vivo, 168 h, dose 10-20 mg/kg, time 7 day
[24] = Acute toxicity in BALB/c mouse spleen assessed as edema at 10 to 40 mg/kg, ip administered as single dose measured for 7 days by H and E staining method; assay type: organism-based; conditions: in vivo, 168 h, dose 10-40 mg/kg, time 7 day
Escherichia coli [25] = assay: Antimicrobial activity against Escherichia coli ATCC 25922 assessed as reduction in survival rate in presence of 0.02 to 2000 microg/ml of chymotrypsin measured after 6 hrs; assay type: functional, organism-based
Escherichia coli [26] = assay: Bactericidal activity against Escherichia coli ATCC 25922 at 1 times MIC measured after 1 hr by time-killing kinetics assay; assay type: functional
[27] = Acute toxicity in BALB/c mouse assessed as mortality at 40 mg/kg, ip measured within 10 mins; assay type: organism-based; conditions: in vivo
[28] = Acute toxicity in BALB/c mouse liver assessed as infiltration of inflammatory cells at 10 to 40 mg/kg, ip administered as single dose measured for 7 days by H and E staining method; assay type: organism-based; conditions: in vivo, 168 h, dose 10-40 mg/kg, time 7 day
[29] = Acute toxicity in BALB/c mouse assessed as abdominal twitching at 10 to 20 mg/kg, ip administered as single dose measured for 7 days; assay type: organism-based; conditions: in vivo, 168 h, dose 10-20 mg/kg, time 7 day
Escherichia coli [30] = assay: Antimicrobial activity against Escherichia coli ATCC 25922 assessed as reduction in survival rate in presence of >= 0.02 microg/ml of trypsin measured after 6 hrs; assay type: functional, organism-based
Escherichia coli [31] = assay: Bactericidal activity against Escherichia coli ATCC 25922 at 2 times MIC measured after 1 hr by time-killing kinetics assay; assay type: functional
HK-2 = assay: Cytotoxicity against human HK-2 cells assessed as reduction in cell viability at 0 to 128 uM incubated for 1 hr by Resazurin cell viability kit; assay type: toxicity, cell-based; conditions: hk-2, 1 h, dose 0-128 µM
[32] = Acute toxicity in BALB/c mouse assessed as pathological changes in heart at 10 to 40 mg/kg, ip administered as single dose measured for 7 days by H and E staining method; assay type: organism-based; conditions: in vivo, 168 h, dose 10-40 mg/kg, time 7 day
[33] = Acute toxicity in BALB/c mouse kidney assessed as edema at 10 to 40 mg/kg, ip administered as single dose measured for 7 days by H and E staining method; assay type: organism-based; conditions: in vivo, 168 h, dose 10-40 mg/kg, time 7 day
Escherichia coli [34] = assay: Antimicrobial activity against Escherichia coli ATCC 25922 assessed as reduction in survival rate in presence of >= 0.02 microg/ml of chymotrypsin measured after 6 hrs; assay type: functional, organism-based
Escherichia coli [35] = assay: Antimicrobial activity against Escherichia coli ATCC 25922 assessed as reduction in survival rate in presence of 0.02 to 2000 microg/ml of trypsin measured after 6 hrs; assay type: functional, organism-based
Cell membrane = assay: Induction of cytoplasmic membrane depolarization in Escherichia coli ATCC 25922 assessed as increase in fluorescence intensity at 4 times MIC measured within 1 min by DiSC3-5 dye based fluorescence method; assay type: subcellular
[36] = Acute toxicity in BALB/c mouse assessed as mortality at 20 mg/kg, ip administered as single dose measured for 7 days; assay type: organism-based; conditions: in vivo, 168 h, time 7 day

SMILES: CC[C@H](C)[C@H](NC(=O)[C@@H]1CCCN1C(=O)[C@H](CC(C)C)NC(=O)[C@@H](N)Cc1ccccc1)C(=O)N[C@H](C(=O)N[C@@H](C)C(=O)N[C@@H](CCCCN)C(=O)N[C@@H](CC(C)C)C(=O)N[C@@H](CC(C)C)C(=O)N[C@@H](CO)C(=O)NCC(=O)N[C@@H](CC(C)C)C(=O)N[C@@H](CC(C)C)C(N)=O)C(C)C (H-FLPIVAKLLSGLL-NH2)
- Activity (Escherichia coli [1]): Active
- Activity (Escherichia coli [2]): 100%
- fold change (FC) (Staphylococcus aureus [3]): 2
- fold change (FC) (Staphylococcus aureus [4]): 2
- Activity (Escherichia coli [5]): 100%
- Activity [6]: Toxic
- Activity [7]: Toxic

SMILES: CC(C)C[C@H](NC(=O)[C@H](CC(C)C)NC(=O)[C@H](CCC(=O)O)NC(=O)[C@H](CCCCN)NC(=O)[C@H](CC(C)C)NC(=O)[C@H](CC(C)C)NC(=O)[C@H](CCCCN)NC(=O)[C@H](C)NC(=O)[C@@H](NC(=O)[C@H](CCCCN)NC(=O)[C@@H]1CCCN1C(=O)[C@H](CC(C)C)NC(=O)[C@@H](N)Cc1ccccc1)C(C)C)C(N)=O (H-FLPKVAKLLKELL-NH2)
- Activity (Staphylococcus aureus [8]): Dde
- Activity (Staphylococcus aureus [9]): Active
- Activity (Staphylococcus aureus [10]): Active
- Activity (Staphylococcus aureus [11]): Active
- Activity (Escherichia coli [12]): 100%
- Activity (Staphylococcus aureus [13]): Active
- Activity (Staphylococcus aureus [14]): Active
- Activity (Escherichia coli [15]): Active
- Activity (Staphylococcus aureus [16]): Active
- Activity (Staphylococcus aureus [17]): Active
- Activity [18]: Non-Toxic
- Activity (Escherichia coli [19]): Active
- Activity (Staphylococcus aureus [20]): Active

SMILES: CC[C@H](C)CCCCC(=O)N[C@@H](CCN)C(=O)N[C@H](C(=O)N[C@@H](CCN)C(=O)N[C@H]1CCNC(=O)[C@H]([C@@H](C)O)NC(=O)[C@H](CCN)NC(=O)[C@H](CCN)NC(=O)[C@H](CC(C)C)NC(=O)[C@@H](Cc2ccccc2)NC(=O)[C@H](CCN)NC1=O)[C@@H](C)O (X1-[Dab]T[Dab][Dab][Dab][dF]L[Dab][Dab]T; lactam 4-C)
- Activity [21]: Non-Toxic
- Activity [22]: Non-Toxic
- Activity [23]: Toxic
- Activity [24]: Non-Toxic
- Activity (Escherichia coli [25]): Active
- Activity (Escherichia coli [26]): 100%
- Activity [27]: Toxic
- Activity [28]: Non-Toxic
- Activity [29]: Toxic
- Activity (Escherichia coli [30]): Active
- Activity (Escherichia coli [31]): 100%
- Activity (HK-2): Non-Toxic
- Activity [32]: Non-Toxic
- Activity [33]: Non-Toxic
- Activity (Escherichia coli [34]): Active
- Activity (Escherichia coli [35]): Active
- Activity (Cell membrane): Active
- Activity [36]: Toxic
